# Patent US20220088016A1, “CANCER TREATMENT USING MULTI-TARGETED KINASE INHIBITOR IN COMBINATION OF PROTEIN KINASE BIOMARKERS” (ZHEJIANG CROWNMAB BIOTECH CO. LTD., priority 2019, published 2022)
# How the values were obtained:
# Assay in all cases: Kinase profiling
# Type in all cases: binding
# [1] = molecular target: ABL1 (E255K)-phosphorylated (Homo sapiens, UniProt P00519, E255K); details: read-out: % Ctrl @ 1000 nM
# ALK (C1156Y) = ALK (C1156Y) (Homo sapiens, UniProt Q9UM73, C1156Y); details: read-out: % Ctrl @ 1000 nM
# BIKE = BIKE (Homo sapiens, UniProt Q9NSY1); details: read-out: % Ctrl @ 1000 nM
# BRSK1 = BRSK1 (Homo sapiens, UniProt Q8TDC3); details: read-out: % Ctrl @ 1000 nM
# CHEK1 = CHEK1 (Homo sapiens, UniProt O14757); details: read-out: % Ctrl @ 1000 nM
# CHEK1, sequence (O14757 whole entry): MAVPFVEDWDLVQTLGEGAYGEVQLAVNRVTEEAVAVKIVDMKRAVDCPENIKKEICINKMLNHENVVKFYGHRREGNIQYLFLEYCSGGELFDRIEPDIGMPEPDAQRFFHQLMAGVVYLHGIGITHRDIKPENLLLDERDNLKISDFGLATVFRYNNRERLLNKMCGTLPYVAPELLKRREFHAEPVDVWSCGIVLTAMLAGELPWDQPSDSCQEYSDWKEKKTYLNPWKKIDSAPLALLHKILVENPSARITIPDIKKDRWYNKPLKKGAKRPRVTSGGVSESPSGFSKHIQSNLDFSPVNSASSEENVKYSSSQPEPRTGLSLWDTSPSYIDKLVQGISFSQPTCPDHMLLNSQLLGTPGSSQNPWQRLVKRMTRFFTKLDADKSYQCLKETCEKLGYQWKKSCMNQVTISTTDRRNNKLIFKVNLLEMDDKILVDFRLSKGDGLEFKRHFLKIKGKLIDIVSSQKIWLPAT
# DCAMKL1 = DCAMKL1 (Homo sapiens, UniProt O15075); details: read-out: % Ctrl @ 1000 nM
# EGFR (G719S) = EGFR (G719S) (Homo sapiens, UniProt P00533, G719S); details: read-out: % Ctrl @ 1000 nM
# EPHA1 = EPHA1 (Homo sapiens, UniProt P21709); details: read-out: % Ctrl @ 1000 nM
# EPHB1 = EPHB1 (Homo sapiens, UniProt P54762); details: read-out: % Ctrl @ 1000 nM
# FES = FES (Homo sapiens, UniProt P07332); details: read-out: % Ctrl @ 1000 nM
# FLT3 (ITD) = system: FLT3 (ITD)
# FYN = FYN (Homo sapiens, UniProt P06241); details: read-out: % Ctrl @ 1000 nM
# FYN, sequence (P06241 whole entry): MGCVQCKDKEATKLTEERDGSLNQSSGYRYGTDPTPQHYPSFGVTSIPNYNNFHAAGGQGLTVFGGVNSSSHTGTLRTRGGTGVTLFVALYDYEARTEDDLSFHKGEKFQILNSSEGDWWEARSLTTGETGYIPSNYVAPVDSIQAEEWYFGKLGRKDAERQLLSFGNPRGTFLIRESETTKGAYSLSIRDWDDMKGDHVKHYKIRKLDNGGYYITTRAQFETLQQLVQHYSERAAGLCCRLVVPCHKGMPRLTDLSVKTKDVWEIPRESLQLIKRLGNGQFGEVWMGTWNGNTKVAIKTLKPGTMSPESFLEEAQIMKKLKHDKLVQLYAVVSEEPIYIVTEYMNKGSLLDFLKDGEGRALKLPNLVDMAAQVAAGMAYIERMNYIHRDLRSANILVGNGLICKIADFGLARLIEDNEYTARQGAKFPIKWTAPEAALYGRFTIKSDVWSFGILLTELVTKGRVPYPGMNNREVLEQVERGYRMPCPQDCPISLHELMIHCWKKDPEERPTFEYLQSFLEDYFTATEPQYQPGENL
# GAK = GAK (Homo sapiens, UniProt O14976); details: read-out: % Ctrl @ 1000 nM
# GRK1 = GRK1 (Homo sapiens, UniProt Q15835); details: read-out: % Ctrl @ 1000 nM
# ICK = ICK (Homo sapiens, UniProt Q9UPZ9); details: read-out: % Ctrl @ 1000 nM
# ITK = ITK (Homo sapiens, UniProt Q08881); details: read-out: % Ctrl @ 1000 nM
# ITK, sequence (Q08881 whole entry): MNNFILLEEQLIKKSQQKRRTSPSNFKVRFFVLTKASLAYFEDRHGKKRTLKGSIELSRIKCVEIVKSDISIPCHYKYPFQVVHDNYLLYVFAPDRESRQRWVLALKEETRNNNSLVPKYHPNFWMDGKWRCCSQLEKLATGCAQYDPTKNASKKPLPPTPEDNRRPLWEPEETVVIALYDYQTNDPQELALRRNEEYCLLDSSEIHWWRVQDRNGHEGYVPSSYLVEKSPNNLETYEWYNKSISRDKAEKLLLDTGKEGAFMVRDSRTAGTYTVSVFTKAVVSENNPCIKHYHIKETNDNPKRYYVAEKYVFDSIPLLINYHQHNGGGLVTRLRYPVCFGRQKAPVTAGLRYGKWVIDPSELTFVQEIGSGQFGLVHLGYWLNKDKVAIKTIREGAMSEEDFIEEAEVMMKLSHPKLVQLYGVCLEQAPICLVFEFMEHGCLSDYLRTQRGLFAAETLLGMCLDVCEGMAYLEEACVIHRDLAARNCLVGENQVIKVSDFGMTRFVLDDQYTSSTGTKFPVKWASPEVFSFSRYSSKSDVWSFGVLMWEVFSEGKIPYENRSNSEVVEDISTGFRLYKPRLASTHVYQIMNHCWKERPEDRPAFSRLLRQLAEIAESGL
# KIT (A829P) = KIT (A829P) (Homo sapiens, UniProt P10721, A829P); details: read-out: % Ctrl @ 1000 nM
# KIT (V559D) = KIT (V559D) (Homo sapiens, UniProt P10721, V559D); details: read-out: % Ctrl @ 1000 nM
# MAK = MAK (Homo sapiens, UniProt P20794); details: read-out: % Ctrl @ 1000 nM
# MLCK = molecular target: T1, MLCK (Homo sapiens, UniProt Q32MK0); details: read-out: % Ctrl @ 1000 nM
# T1 construct: T7 phage fusion (stated for most kinases of the panel only); made in house; host or cells: T7 phage in E. coli (BL21-derived) or HEK-293 cells
# MYLK4 = molecular target: T2, MYLK4 (Homo sapiens, UniProt Q86YV6); details: read-out: % Ctrl @ 1000 nM
# T2 construct: T7 phage fusion (said for most assays); made in house
# T2 sequence (Q86YV6 whole entry, the tested form may be a part): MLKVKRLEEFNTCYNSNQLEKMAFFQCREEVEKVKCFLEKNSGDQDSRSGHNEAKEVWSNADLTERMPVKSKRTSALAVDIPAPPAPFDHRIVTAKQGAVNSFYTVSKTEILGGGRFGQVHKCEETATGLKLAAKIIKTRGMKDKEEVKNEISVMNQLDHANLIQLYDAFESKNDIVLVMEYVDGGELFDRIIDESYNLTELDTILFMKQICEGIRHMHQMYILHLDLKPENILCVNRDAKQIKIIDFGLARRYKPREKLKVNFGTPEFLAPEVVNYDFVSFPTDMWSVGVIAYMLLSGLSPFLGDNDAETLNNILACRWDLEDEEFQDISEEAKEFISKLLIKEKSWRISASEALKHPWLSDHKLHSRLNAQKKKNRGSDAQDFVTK
# PCTK1 = PCTK1 (Homo sapiens, UniProt Q00536); details: read-out: % Ctrl @ 1000 nM
# PCTK1, sequence (Q00536 whole entry): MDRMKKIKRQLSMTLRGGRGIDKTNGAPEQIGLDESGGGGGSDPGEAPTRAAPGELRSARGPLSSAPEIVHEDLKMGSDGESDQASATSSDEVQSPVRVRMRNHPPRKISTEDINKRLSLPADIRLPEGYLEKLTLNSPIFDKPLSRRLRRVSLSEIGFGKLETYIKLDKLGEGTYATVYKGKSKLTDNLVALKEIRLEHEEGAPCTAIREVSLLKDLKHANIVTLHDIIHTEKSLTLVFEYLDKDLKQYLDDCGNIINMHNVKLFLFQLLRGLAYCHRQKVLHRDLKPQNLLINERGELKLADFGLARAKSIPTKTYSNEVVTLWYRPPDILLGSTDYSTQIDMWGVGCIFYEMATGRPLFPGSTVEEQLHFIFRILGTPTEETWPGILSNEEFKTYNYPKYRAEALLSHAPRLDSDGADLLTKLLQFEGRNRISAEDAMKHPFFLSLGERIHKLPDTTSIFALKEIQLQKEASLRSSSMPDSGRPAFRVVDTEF
# PDGFRA = PDGFRA (Homo sapiens, UniProt P16234); details: read-out: % Ctrl @ 1000 nM
# PDGFRB = PDGFRB (Homo sapiens, UniProt P09619); details: read-out: % Ctrl @ 1000 nM
# PIK3C2B = PIK3C2B (Homo sapiens, UniProt O00750); details: read-out: % Ctrl @ 1000 nM
# PIK3CA (E545K) = PIK3CA (E545K) (Homo sapiens, UniProt P42336, E545K); details: read-out: % Ctrl @ 1000 nM
# PKAC-beta = PKAC-beta (Homo sapiens, UniProt P22694); details: read-out: % Ctrl @ 1000 nM
# PRKCI = PRKCI (Homo sapiens, UniProt P41743); details: read-out: % Ctrl @ 1000 nM
# PRKD1 = PRKD1 (Homo sapiens, UniProt Q15139); details: read-out: % Ctrl @ 1000 nM
# RIPK4 = RIPK4 (Homo sapiens, UniProt P57078); details: read-out: % Ctrl @ 1000 nM
# RIPK4, sequence (P57078 whole entry): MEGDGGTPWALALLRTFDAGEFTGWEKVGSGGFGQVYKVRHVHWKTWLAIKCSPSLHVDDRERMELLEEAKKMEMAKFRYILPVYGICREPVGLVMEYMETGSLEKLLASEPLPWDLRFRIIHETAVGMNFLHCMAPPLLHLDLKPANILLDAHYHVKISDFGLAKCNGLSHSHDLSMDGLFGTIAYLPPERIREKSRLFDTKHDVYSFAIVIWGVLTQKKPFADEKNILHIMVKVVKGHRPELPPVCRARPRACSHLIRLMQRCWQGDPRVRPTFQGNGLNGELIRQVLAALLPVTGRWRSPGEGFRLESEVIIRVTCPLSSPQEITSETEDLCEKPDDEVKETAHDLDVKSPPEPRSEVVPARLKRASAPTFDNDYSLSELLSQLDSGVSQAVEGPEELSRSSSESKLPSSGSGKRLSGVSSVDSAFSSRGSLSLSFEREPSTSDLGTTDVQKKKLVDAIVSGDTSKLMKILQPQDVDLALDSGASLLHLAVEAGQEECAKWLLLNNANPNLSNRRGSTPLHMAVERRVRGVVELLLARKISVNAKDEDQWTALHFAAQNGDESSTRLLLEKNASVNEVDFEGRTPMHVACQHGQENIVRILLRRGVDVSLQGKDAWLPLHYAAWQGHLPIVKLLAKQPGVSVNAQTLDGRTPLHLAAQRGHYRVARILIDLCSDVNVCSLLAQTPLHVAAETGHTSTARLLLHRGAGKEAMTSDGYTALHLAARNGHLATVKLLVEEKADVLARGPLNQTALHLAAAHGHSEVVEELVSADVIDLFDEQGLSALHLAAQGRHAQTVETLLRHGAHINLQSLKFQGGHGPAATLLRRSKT
# [2] = molecular target: RPS6KA4 (Kin.Dom.1-N-terminal) (Homo sapiens, UniProt O75676); details: read-out: % Ctrl @ 1000 nM
# [3] = molecular target: RPS6KA5 (Kin.Dom.2-C-terminal) (Homo sapiens, UniProt O75582); details: read-out: % Ctrl @ 1000 nM
# RPS6KA5 (Kin.Dom.2-C-terminal), sequence (O75582 426-687 limits assumed): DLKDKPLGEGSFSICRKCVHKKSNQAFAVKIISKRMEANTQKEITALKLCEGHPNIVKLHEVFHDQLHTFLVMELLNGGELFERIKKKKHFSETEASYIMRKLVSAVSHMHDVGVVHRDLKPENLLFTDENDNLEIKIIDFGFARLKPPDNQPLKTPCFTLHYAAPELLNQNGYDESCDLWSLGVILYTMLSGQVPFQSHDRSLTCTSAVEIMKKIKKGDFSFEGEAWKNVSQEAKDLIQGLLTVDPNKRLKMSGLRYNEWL
# [4] = molecular target: RSK2 (Kin.Dom.1-N-terminal) (Homo sapiens, UniProt P51812); details: read-out: % Ctrl @ 1000 nM
# SRC = SRC (Homo sapiens, UniProt P12931); details: read-out: % Ctrl @ 1000 nM
# SRC, sequence (P12931 whole entry): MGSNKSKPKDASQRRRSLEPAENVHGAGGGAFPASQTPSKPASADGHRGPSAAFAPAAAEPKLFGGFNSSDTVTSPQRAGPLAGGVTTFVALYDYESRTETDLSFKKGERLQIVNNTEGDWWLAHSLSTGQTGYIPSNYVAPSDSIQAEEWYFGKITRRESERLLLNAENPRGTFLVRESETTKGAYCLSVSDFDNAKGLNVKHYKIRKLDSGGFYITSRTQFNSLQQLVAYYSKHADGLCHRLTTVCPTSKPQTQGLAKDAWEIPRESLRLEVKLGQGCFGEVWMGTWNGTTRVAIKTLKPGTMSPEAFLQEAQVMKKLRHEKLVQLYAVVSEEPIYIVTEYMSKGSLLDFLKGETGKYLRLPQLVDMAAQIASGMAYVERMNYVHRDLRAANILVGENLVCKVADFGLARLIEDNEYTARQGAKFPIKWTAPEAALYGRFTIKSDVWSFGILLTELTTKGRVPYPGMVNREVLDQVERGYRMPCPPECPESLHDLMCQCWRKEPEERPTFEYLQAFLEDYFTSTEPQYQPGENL
# TEC = TEC (Homo sapiens, UniProt P42680); details: read-out: % Ctrl @ 1000 nM
# TLK2 = TLK2 (Homo sapiens, UniProt Q86UE8); details: read-out: % Ctrl @ 1000 nM
# TLK2, sequence (Q86UE8 whole entry): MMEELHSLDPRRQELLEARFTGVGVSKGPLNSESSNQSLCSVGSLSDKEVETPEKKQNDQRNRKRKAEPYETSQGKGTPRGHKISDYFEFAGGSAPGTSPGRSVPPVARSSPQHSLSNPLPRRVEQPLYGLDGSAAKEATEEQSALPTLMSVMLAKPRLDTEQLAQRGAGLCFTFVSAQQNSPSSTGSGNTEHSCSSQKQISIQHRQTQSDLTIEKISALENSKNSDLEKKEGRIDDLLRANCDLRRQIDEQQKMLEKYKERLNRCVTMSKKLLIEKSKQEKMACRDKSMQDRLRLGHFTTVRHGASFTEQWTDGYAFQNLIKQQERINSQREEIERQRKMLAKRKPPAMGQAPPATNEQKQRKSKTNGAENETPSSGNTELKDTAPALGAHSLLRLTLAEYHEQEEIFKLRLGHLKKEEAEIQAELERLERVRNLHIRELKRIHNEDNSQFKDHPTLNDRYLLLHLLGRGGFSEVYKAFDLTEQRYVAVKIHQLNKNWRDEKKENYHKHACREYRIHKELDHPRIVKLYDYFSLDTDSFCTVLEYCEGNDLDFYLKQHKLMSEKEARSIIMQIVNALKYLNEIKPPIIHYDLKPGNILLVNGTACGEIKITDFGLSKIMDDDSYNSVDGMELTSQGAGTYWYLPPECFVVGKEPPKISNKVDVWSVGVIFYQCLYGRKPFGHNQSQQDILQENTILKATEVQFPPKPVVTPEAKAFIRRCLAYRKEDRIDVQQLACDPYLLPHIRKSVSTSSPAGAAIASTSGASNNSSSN
# TSSK3 = TSSK3 (Homo sapiens, UniProt Q96PN8); details: read-out: % Ctrl @ 1000 nM
# ULK2 = ULK2 (Homo sapiens, UniProt Q8IYT8); details: read-out: % Ctrl @ 1000 nM
# WNK3 = WNK3 (Homo sapiens, UniProt Q9BYP7); details: read-out: % Ctrl @ 1000 nM
structure (smiles),measurement,setting,value
Cc1cc(Oc2cc(NC(=O)C3CC3)ncn2)ccc1NC(=O)Nc1ccc(Cl)c(C(F)(F)F)c1 [CBT-102],remaining activity at 1 µM,[1],92%
same,remaining activity at 1 µM,ALK (C1156Y),97%
same,remaining activity at 1 µM,BIKE,61%
same,remaining activity at 1 µM,BRSK1,95%
same,remaining activity at 1 µM,CHEK1,100%
same,remaining activity at 1 µM,DCAMKL1,100%
same,remaining activity at 1 µM,EGFR (G719S),84%
same,remaining activity at 1 µM,EPHA1,45%
same,remaining activity at 1 µM,EPHB1,38%
same,remaining activity at 1 µM,FES,68%
same,% Ctrl @ 1000 nM,FLT3 (ITD),18%
same,remaining activity at 1 µM,FYN,76%
same,remaining activity at 1 µM,GAK,100%
same,remaining activity at 1 µM,GRK1,100%
same,remaining activity at 1 µM,ICK,100%
same,remaining activity at 1 µM,ITK,90%
same,remaining activity at 1 µM,KIT (A829P),16%
same,remaining activity at 1 µM,KIT (V559D),0%
same,remaining activity at 1 µM,MAK,62%
same,remaining activity at 1 µM,MLCK,100%
same,remaining activity at 1 µM,MYLK4,100%
same,remaining activity at 1 µM,PCTK1,88%
same,remaining activity at 1 µM,PDGFRA,2.1%
same,remaining activity at 1 µM,PDGFRB,0%
same,remaining activity at 1 µM,PIK3C2B,100%
same,remaining activity at 1 µM,PIK3CA (E545K),94%
same,remaining activity at 1 µM,PKAC-beta,95%
same,remaining activity at 1 µM,PRKCI,74%
same,remaining activity at 1 µM,PRKD1,100%
same,remaining activity at 1 µM,RIPK4,100%
same,remaining activity at 1 µM,[2],100%
same,remaining activity at 1 µM,[3],100%
same,remaining activity at 1 µM,[4],97%
same,remaining activity at 1 µM,SRC,76%
same,remaining activity at 1 µM,TEC,92%
same,remaining activity at 1 µM,TLK2,100%
same,remaining activity at 1 µM,TSSK3,100%
same,remaining activity at 1 µM,ULK2,98%
same,remaining activity at 1 µM,WNK3,100%
